Source: patent publication US9487489B2, “Halogen-substituted pyrazole derivatives as pest-control agents” (BAYER CROPSCIENCE AKTIENGESELLSCHAFT, priority 2013, dated 2016)

What was measured:
[1] = tested on: green peach aphid (Myzus persicae); test: Myzus persicae spray test (MYZUPE); assay type: in vivo; conditions: application rate 500 g/ha; Chinese cabbage leaf discs; after 6 days
Procedure, shortened: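 Chinese cabbage leaf discs infested with all aphid stages sprayed with compound in acetone/DMF with alkylaryl polyglycol ether emulsifier in water. Efficacy (% aphids killed; 100% all dead, 0% none) scored after 6 days.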

[2] = tested on: greenhouse red spider mite (Tetranychus urticae); test: Tetranychus urticae spray test, OP-resistant (TETRUR); assay type: in vivo; conditions: application rate 500 g/ha; bean leaf discs; after 6 days
Procedure, shortened: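 Percent kill, scored 6 days post-spray (0% = none dead, 100% = all dead), on Phaseolus vulgaris leaf discs infested with every life stage of the OP-resistant spider mite. Compound dissolved in acetone plus DMF, diluted to test concentration with emulsifier-containing water (1000 ppm).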

[3] = tested on: larvae of the red stomach worm (Haemonchus contortus); test: Haemonchus contortus test (HAEMCO); assay type: in vivo; conditions: application rate 20 ppm; after 5 days
Method: T8. Haemonchus contortus-test (HAEMCO)
Solvent: dimethyl sulphoxide
To produce a suitable preparation of active compound, 10 mg of active compound are mixed with 0.5 ml of dimethyl sulphoxide, and the concentrate is diluted with “Ringer solution” to the desired concentration.
Vessels containing the active compound preparation of the desired concentration are populated with about 40 larvae of the red stomach worm (Haemonchus contortus).
After 5 days, the kill in % is determined 100% means that all of the larvae have been killed; 0% means that none of the larvae have been killed.

[4] = tested on: adult cat fleas (Ctenocephalides felis); test: Ctenocephalides felis in vitro contact test with adult cat fleas (T1); conditions: after 48 h
Procedure, shortened: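 Adult cat fleas (Ctenocephalides felis), 5-10 per tube, were exposed to the inner surface of 25 ml test tubes coated with compound in acetone. Tubes were incubated lying flat under ambient conditions. Efficacy was then read by standing tubes upright and knocking the fleas to the floor. Fleas that stayed motionless or moved uncoordinatedly counted as dead or moribund, where 100% means all fleas dead or moribund and 0% means none harmed.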

[5] = tested on: southern root-knot nematode (Meloidogyne incognita); test: Meloidogyne incognita test (MELGIN); assay type: in vivo; conditions: application rate 20 ppm; lettuce; after 14 days
Method: K. Meloidogyne incognita Test (MELGIN)
Solvent: 125.0 parts by weight of acetone
To prepare a suitable active compound preparation, 1 part by weight of active compound is mixed with the stated amount of solvent and the concentrate is diluted with water to the desired concentration.
Vessels are filled with sand, active compound solution, an egg/larvae suspension of the southern root-knot nematode (Meloidogyne incognita) and lettuce seeds. The lettuce seeds germinate and the plants develop. On the roots, galls are formed.
After 14 days, the nematicidal efficacy in % is determined by the formation of galls. 100% means that no galls have been found; 0% means that the number of galls on the treated plants corresponds to the untreated control.

[6] = tested on: Tick nymphs (Amblyomma hebraeum); test: Amblyomma hebraeum test (AMBYHE), tick nymphs immersed; assay type: in vivo; conditions: application rate 100 ppm; immersed one minute; after 42 days
[7] = tested on: adult dog ticks (Rhipicephalus sanguineus); test: Rhipicephalus sanguineus in vitro contact test with adult brown dog ticks (T2); conditions: after 48 h
Procedure, shortened: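 Acetone solutions coated onto test tube walls and floor, giving 5 μg/cm^2 at 900 ppm. Five to ten adult ticks held per tube in the dark at room temperature for 48 h, then heated at 45-50° C for up to 5 min; efficacy is the percentage of dead or moribund ticks unable to climb away.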

[8] = tested on: L1 larvae of the Australian sheep blowfly (Lucilia cuprina); test: Lucilia cuprina test (LUCICU); assay type: in vivo; conditions: application rate 100 ppm; after 2 days
Procedure, shortened: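 Percent mortality read at 2 days; 100% = all larvae killed, 0% = none. Test compound, predissolved in DMSO and water-diluted to the wanted level, was mixed into minced horsemeat holding roughly 20 first-instar larvae.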

Cn1nc(C(F)(F)C(F)(F)F)c(C(F)(F)F)c1-n1cc(-c2ccc(Cl)c(C(=O)NC3CC3)c2)cn1 [Ic-1, 2-Chloro-N-cyclopropyl-5-[2′-methyl-5′-(pentafluoroethyl)-4′-(trifluoromethyl)-2′H-1,3′-bipyrazol-4-yl]benzamide]
efficacy in % [1]: 90%
efficacy in % [2]: 100%
efficacy (kill in %) [3]: 80%
efficacy (dead or moribund fleas) ([4]; application rate 1 μg/cm^2): 100%
efficacy (dead or moribund fleas) ([4]; application rate 5 μg/cm^2): 100%
nematicidal efficacy in % (formation of galls) [5]: 90%
efficacy (kill in %) [6]: 100%
efficacy (dead or moribund ticks) ([7]; application rate 1 μg/cm^2): 100%
efficacy (dead or moribund ticks) ([7]; application rate 5 μg/cm^2): 100%
efficacy (kill in %) [8]: 100%
